The numbers were not newly measured in US20100092463A1, “Method for treating or preventing osteoporosis by reducing follicle stimulating hormone to cyclic physiological levels in a mammalian subject” (Searete LLC, a limited liability corporation of the State …, priority 2008, published 2010), which cites them from elsewhere.

Where a SMILES comes first, the peptide text is derived from it. [ ]: non-standard residue; d: D form. d(hArg(Et2)) = CCN=C(NCC)NCCCC[C@@H](N)C(=O)O; hArg(Et2) = CCN=C(NCC)NCCCC[C@H](N)C(=O)O; dPhe(4-Cl) = N[C@H](Cc1ccc(Cl)cc1)C(=O)O; d2Nal = N[C@H](Cc1ccc2ccccc2c1)C(=O)O; dCit = NC(=O)NCCC[C@@H](N)C(=O)O; d3Pal = N[C@H](Cc1cccnc1)C(=O)O

For the series the following is noted: most common adverse effects being nausea and headache.

On to `CC(=O)N[C@H](Cc1ccc2ccccc2c1)C(=O)N[C@H](Cc1ccc(Cl)cc1)C(=O)N[C@H](Cc1cccnc1)C(=O)N[C@@H](CO)C(=O)N[C@@H](Cc1ccc(O)cc1)C(=O)N[C@H](CCCNC(N)=O)C(=O)N[C@@H](CC(C)C)C(=O)N[C@@H](CCCNC(=N)N)C(=O)N1CCC[C@H]1C(=O)N[C@H](C)C(N)=O` [cetrorelix] (Ac-[d2Nal][dPhe(4-Cl)][d3Pal]SY[dCit]LRP[dA]-NH2), for which the tolerability entry is listed as “well tolerated”.

Consider `CCN=C(NCC)NCCCC[C@H](NC(=O)[C@H](CC(C)C)NC(=O)[C@@H](CCCCNC(=NCC)NCC)NC(=O)[C@H](Cc1ccc(O)cc1)NC(=O)[C@H](CO)NC(=O)[C@@H](Cc1cccnc1)NC(=O)[C@@H](Cc1ccc(Cl)cc1)NC(=O)[C@@H](Cc1ccc2ccccc2c1)NC(C)=O)C(=O)N1CCC[C@H]1C(=O)N[C@H](C)C(N)=O` [ganirelix] (Ac-[d2Nal][dPhe(4-Cl)][d3Pal]SY[d(hArg(Et2))]L[hArg(Et2)]P[dA]-NH2), for which the tolerability entry is “well tolerated”.
